Drawing on US5254584A, “N-acetonylbenzamides and their use as fungicides” (Rohm and Haas Company, priority 1992, dated 1993), this text covers IC50, MIC and inhibition for 16 compounds.

≈ marks a conversion by molar mass, not a printed value. A value given as a limit tells only on which side of the number the result lay.

Data set [1] relates to Pythium ultimum. Nature of the data set: Fungitoxicity assay against Pythium ultimum (in vitro, mycelial dry weight). Type of data set: cell-based. The following applies: Globisporangium ultimum, 48 hours at 25° C., read-out: Pythium EC50. As to the method: The compounds of Examples 1-20 were tested in vitro for fungicidal activity and phytotoxicity. A. The compounds were tested in vitro for fungicidal activity against Pythium ultimum, Botrytis cinerea and Venturia inaequalis. Fungitoxicity assay against Pythium ultimum: A dilution series of test compound was prepared in dimethylsulfoxide, and 0.1 milliliter (ml) of each dilution was added to 19.9 ml of a liquid asparagine-sucrose broth ([…]. and Katznelson, K., 1971, Can. J. […] Each plate was inoculated with a mycelial plug, 7 millimeters (mm) in diameter, taken from the growing edge of a culture of Pythium ultimum grown on potato dextrose agar. Two replicate plates were used for each treatment. The increase in mycelial dry weight was determined after growth for 48 hours at 25° C. with shaking on a gyrotary shaker at 60 revolutions per minute (rpm). EC50 values were calculated from dose response curves. As used herein, the terminology "EC50" means the concentration of test compound required to inhibit growth by 50% as compared to a control lacking the test compound. Results of the testing for fungicidal activity against the above named fungi are set forth below in Table 3 as Pythium EC50 (ppm), Botrytis EC50 (ppm) and Venturia MIC (ppm), respectively.

The subject of data set [2] is Botrytis cinerea. In words: Fungitoxicity assay against Botrytis cinerea (in vitro, colony diameter). It counts as cell-based. Particulars: 48 hours at 25° C., read-out: Botrytis EC50. As to the method:
The compounds of Examples 1-20 were tested in vitro for fungicidal activity and phytotoxicity. A. The compounds were tested in vitro for fungicidal activity against Pythium ultimum, Botrytis cinerea and Venturia inaequalis. Fungitoxicity assay against Botrytis cinerea: […] The mixtures were poured immediately into 9 centimeter (cm) diameter petri dishes. Two replicate plates were used for each treatment. Each plate was inoculated with a 7 mm diameter plug taken from the growing edge of a 5 day old culture of B. cinerea on potato dextrose agar. […] Results of the testing for fungicidal activity against the above named fungi are set forth below in Table 3 as Pythium EC50 (ppm), Botrytis EC50 (ppm) and Venturia MIC (ppm), respectively.

A short description of data set [3]: Tobacco root assay for phytotoxicity (in vitro root elongation). Particulars: 7 days, 27° C., read-out: Tob. EC50. As to the method: The compounds of Examples 1-20 were tested in vitro for fungicidal activity and phytotoxicity.
B. The compounds were tested in vitro for phytotoxicity in a tobacco root elongation assay.
Tobacco root assay for Phytotoxicity:
A dilution series of test compound was prepared in dimethylsulfoxide and 20 ul of each dilution was added to 20 ml of molten nutrient medium, consisting of Murashige and Skoog salt base, 2% sucrose and 1% agar, to give the desired concentrations of test compound. The mixtures were poured immediately into 9 cm diameter petri dishes. Surface-sterilized tobacco seeds were placed on each plate (20 seeds per plate) and the plates incubated in a vertical position in a 27° C. incubator with a 16 hour photoperiod. After 7 days the mean root lengths were calculated, and EC50 values determined from dose response curves.
Results of the tobacco root assay are set forth below in Table 3 as Tob. EC50 (ppm).

A further data set relates to Venturia inaequalis. In words: Fungitoxicity assay against Venturia inaequalis (in vitro, microtiter MIC). Particulars: 168 h, minimum inhibitory concentration, 7 days at 25° C. It counts as cell-based. On the procedure: The compounds of Examples 1-20 were tested in vitro for fungicidal activity and phytotoxicity. A. The compounds were tested in vitro for fungicidal activity against Pythium ultimum, Botrytis cinerea and Venturia inaequalis. Fungitoxicity assay against Venturia inaequalis: Test compounds were dissolved in dimethylsulfoxide at 1 milligram per milliliter (mg/ml), and 50 ul added to 950 ul of yeast extract-dextrose medium (YED, 0.4% yeast extract, 2% dextrose) to give 50 part per million (ppm) solutions. Minimum inhibitory concentration (MIC) values were determined using a microtiter assay with twofold serial dilutions of the prepared 50 ppm solutions (100 ul) in YED medium. Inoculum consisted of a spore suspension of V. inaequalis in YED medium at 2.5×10^5 spores per ml. […] Results of the testing for fungicidal activity against the above named fungi are set forth below in Table 3 as Pythium EC50 (ppm), Botrytis EC50 (ppm) and Venturia MIC (ppm), respectively.

For data set [4], the system named is Botrytis cinerea. Nature of the data set: microbe, parasite or virus in culture. The following applies: 72 h, 3 days at room temperature, read-out: BOC percent inhibition of fungal growth. Type of data set: cell-based.
A further data set deals with Phytophthora capsici. In words: microbe, parasite or virus in culture. Type of data set: cell-based. The following applies: 72 h, 3 days at room temperature, read-out: PHY percent inhibition of fungal growth.
In data set [5] the test system is Colletotrichum lagenarium. In words: microbe, parasite or virus in culture. It counts as cell-based. Particulars: Colletotrichum orbiculare, 72 h, 3 days at room temperature, read-out: COL percent inhibition of fungal growth.
For the next data set, the system named is Cercospora beticola. In words: microbe, parasite or virus in culture. It counts as cell-based. The following applies: 72 h, 3 days at room temperature, read-out: CER percent inhibition of fungal growth.
For data set [6], the system named is Pseudocercosporella herpotrichoides. In words: microbe, parasite or virus in culture. Type of data set: cell-based. Particulars: Oculimacula yallundae, 72 h, 3 days at room temperature, read-out: PSH percent inhibition of fungal growth.
The next data set relates to Piricularia oryzae. In words: organism not typed. Type of data set: cell-based. Particulars: 72 h, read-out: PIR percent inhibition of fungal growth.
Another data set has as its system Rhizoctonia solani. In words: microbe, parasite or virus in culture. Type of data set: cell-based. The following applies: 72 h, 3 days at room temperature, read-out: RHI percent inhibition of fungal growth.
In another data set the test system is Fusarium roseum. Nature of the data set: microbe, parasite or virus in culture. Type of data set: cell-based. Particulars: Fusarium sambucinum, 72 h, read-out: FUS percent inhibition of fungal growth.
Another data set relates to Monilinia fructicol. Nature of the data set: microbe, parasite or virus in culture. It counts as cell-based. The following applies: 72 h, 3 days at room temperature, read-out: MON percent inhibition of fungal growth.
Data set [7] deals with Pythium ultimum. Nature of the data set: microbe, parasite or virus in culture. It counts as cell-based. Particulars: Globisporangium ultimum, 72 h, 3 days at room temperature, read-out: PYU percent inhibition of fungal growth.

One may read the MIC as the lowest concentration found to suppress growth. As for `CON=Cc1cccc(C(=O)NC(C)(C)C(=O)CCl)c1` [Example 2, 3-(3'-Methoxyiminomethylbenzamido)-1-chloro-3-methylbutan-2-one], the IC50 in the data set with Pythium ultimum [1] came to 1.61 µg/mL (≈ 5.43 µM); in the data set on Botrytis cinerea [2], 71.3 µg/mL (≈ 240 µM). The IC50 at 168 h in [3] came out at 4.94 µg/mL (≈ 16.6 µM). This compound also registered a minimal inhibitory concentration (MIC) against Venturia inaequalis of 12.5 µg/mL (≈ 42.1 µM).
`CCON=Cc1cccc(C(=O)NC(C)(CC)C(=O)CCl)c1` (stereo not drawn) [Example 3]: the IC50 in the data set on Pythium ultimum [1] turned out to be 2.07 µg/mL (≈ 6.37 µM); in the data set on Botrytis cinerea [2], 21.8 µg/mL (≈ 67.1 µM). In addition, in data set [3], the IC50 at 168 h was found to be 5.35 µg/mL (≈ 16.5 µM). Moreover, the minimum inhibitory concentration (MIC) in the data set on Venturia inaequalis is 6.25 µg/mL (≈ 19.2 µM).
As to `CCON=Cc1cccc(C(=O)NC(C)(CC)C(=O)C(Cl)Cl)c1` (stereo not drawn) [Example 4], the IC50 amounted to 68.4 µg/mL (≈ 190 µM) with Pythium ultimum [1] and 68.9 µg/mL (≈ 192 µM) in the data set on Botrytis cinerea [2]. The minimal inhibitory concentration (MIC) in the data set with Venturia inaequalis was above 25 µg/mL.
Turning to `CCC(C)(NC(=O)c1cccc(C=NOC)c1)C(=O)C(Cl)Cl` (stereo not drawn) [Example 5, 3-(3'-Methoxyiminomethylbenzamido)-1,1-dichloro-3-methylpentan-2-one], the IC50 with Pythium ultimum [1] came to 16.3 µg/mL (≈ 47.2 µM); in the data set on Botrytis cinerea [2], 54.6 µg/mL (≈ 158 µM). Besides, in the data set with Venturia inaequalis, the MIC was above 25 µg/mL.
For the compound `CCC(C)(NC(=O)c1cccc(C=NOCC(=O)OC)c1)C(=O)CCl` (stereo not drawn) [Example 7], the IC50 was 22.8 µg/mL (≈ 61.8 µM) with Pythium ultimum [1] and above 100 µg/mL in the data set with Botrytis cinerea [2]. Also, in data set [3], the IC50 at 168 h came to 9.48 µg/mL (≈ 25.7 µM). The minimum inhibitory concentration (MIC) with Venturia inaequalis was above 25 µg/mL.
Regarding `CCC(C)(NC(=O)c1cccc(C=NOC(C)(C)C)c1)C(=O)CCl` (stereo not drawn) [Example 8], the IC50 in the data set on Pythium ultimum [1] was 173 µg/mL (≈ 489 µM); with Botrytis cinerea [2], above 100 µg/mL. The IC50 at 168 h in data set [3] stood at 46.8 µg/mL (≈ 133 µM). Also, the minimum inhibitory concentration (MIC) in the data set with Venturia inaequalis was above 25 µg/mL.
A word on the inhibition: it is the share of the control response that was lost under treatment. As for `CCC(C)(NC(=O)c1cc(Cl)cc(C=NOC)c1)C(=O)CCl` (stereo not drawn) [Example 9, N-[3'-(1'-chloro-3'-methyl-2'-oxopentan)]-3-chloro-5-methoxyiminomethylbenzamide], the inhibition at 25 ppm was 90% in the data set on Botrytis cinerea [4]; 100% in the data set on Phytophthora capsici; 90% in data set [5]; 100% in the data set with Cercospora beticola; 100% in [6]; 100% in the data set on Piricularia oryzae. Further, the inhibition at 25 ppm with Rhizoctonia solani was 90%; in the data set on Fusarium roseum it was 75%; in the data set with Monilinia fructicol, 100%; with Pythium ultimum [7], 100%. Also, the IC50 amounted to 0.05 µg/mL (≈ 0.145 µM) with Pythium ultimum [1] and 0.25 µg/mL (≈ 0.724 µM) with Botrytis cinerea [2]. Besides, the IC50 at 168 h in data set [3] is 0.06 µg/mL (≈ 0.174 µM). In the data set on Venturia inaequalis, this compound returned an MIC of 0.05 µg/mL (≈ 0.145 µM).
Turning to `CCC(C)(NC(=O)c1ccc(C=NOC)cc1)C(=O)CCl` (stereo not drawn) [Example 10, 3-(4'-Methoxyiminomethylbenzamido)-1-chloro-3-methylpentan-2-one], the IC50 with Pythium ultimum [1] was 1.57 µg/mL (≈ 5.05 µM). In addition, in data set [3], the IC50 at 168 h was determined as 21.7 µg/mL (≈ 69.8 µM).
On to `CCC(C)(NC(=O)c1cccc(C=NOC)c1)C(=O)CSC#N` (stereo not drawn) [Example 13, N-[3'-(1'-thiocyano-3'-methyl-2'oxopentan)]-3-methoxyiminomethylbenzamide], for which the IC50 in the data set with Pythium ultimum [1] is 7.38 µg/mL (≈ 22.1 µM). In data set [3], the IC50 at 168 h is above 20 µg/mL.
For the compound `CCC(C)(NC(=O)c1ccc(Cl)c(C=NOC)c1)C(=O)CCl` (stereo not drawn) [Example 14, N-[3'-(1'-chloro-3'-methyl-2'-oxopentan)]-4-chloro-3-methoxyiminomethylbenzamide], the figures for the IC50 with Pythium ultimum [1] and in the data set with Botrytis cinerea [2] were 4.68 µg/mL (≈ 13.6 µM) and 28.1 µg/mL (≈ 81.4 µM), respectively. Also, the IC50 at 168 h in data set [3] was 1.25 µg/mL (≈ 3.62 µM). The compound also came in with a minimum inhibitory concentration (MIC) against Venturia inaequalis of 25 µg/mL (≈ 72.4 µM).
In the same order, the values of `CCC(C)(NC(=O)c1cc(C=NOC)cc(C=NOC)c1)C(=O)CCl` (stereo not drawn) [Example 15, N-[3'-(1'-chloro-3'-methyl-2'-oxopentan)]-3,5-dimethoxyiminomethylbenzamide] are 4.16 µg/mL (≈ 11.3 µM), 4.19 µg/mL (≈ 11.4 µM), 2.33 µg/mL (≈ 6.33 µM) and 1.56 µg/mL (≈ 4.24 µM).
Regarding `CCC(C)(NC(=O)c1ccc(C=NOC)c(Cl)c1)C(=O)CCl` (stereo not drawn) [Example 16, N-[3'-(1'-chloro-3'-methyl-2'-oxopentan)]-3-chloro-4-methoxyiminomethylbenzamide], the IC50 with Pythium ultimum [1] was 0.58 µg/mL (≈ 1.68 µM); in the data set on Botrytis cinerea [2], 12.6 µg/mL (≈ 36.5 µM). Besides, the IC50 at 168 h in [3] is 11.3 µg/mL (≈ 32.8 µM). Moreover, in the data set with Venturia inaequalis, the minimal inhibitory concentration (MIC) stood at 6.25 µg/mL (≈ 18.1 µM).
Turning to `CCC(C)(NC(=O)c1cccc(C(C)=NOC)c1)C(=O)CCl` (stereo not drawn) [Example 17], the IC50 worked out at 24.2 µg/mL (≈ 74.5 µM) in the data set with Pythium ultimum [1] and 97.3 µg/mL (≈ 300 µM) with Botrytis cinerea [2]. The minimum inhibitory concentration (MIC) against Venturia inaequalis was above 25 µg/mL.
In the same order, the values of `CCC(C)(NC(=O)c1cc(C)cc(C=NO)c1)C(=O)CCl` (stereo not drawn) [Example 18] are 5.95 µg/mL (≈ 19.1 µM), 53.9 µg/mL (≈ 173 µM) and above 25 µg/mL.
Turning to `CCC(C)(NC(=O)c1ccc(C(C)=NOC)cc1)C(=O)CCl` (stereo not drawn) [Example 19, 3-(4'-Methoxyiminomethyl(methyl)benzamido)-1-chloro-3-methylpentan-2-one], the values for the IC50 with Pythium ultimum [1] and in the data set with Botrytis cinerea [2] were above 10 µg/mL and above 100 µg/mL, respectively. The same compound had an MIC against Venturia inaequalis above 25 µg/mL.
For `CCC(C)(NC(=O)c1cc(Cl)c(C=NOC)c(Cl)c1)C(=O)CCl` (stereo not drawn) [Example 20, N-[3'-(1'-chloro-3'-methyl-2'-oxopentan)]-3,5-dichloro-4-methoxyiminobenzamide], the IC50 in the data set with Pythium ultimum [1] is 0.23 µg/mL (≈ 0.606 µM). In addition, the IC50 at 168 h in data set [3] stood at 1 µg/mL (≈ 2.63 µM).
